Laboratory results as given in the NIST ThermoML archive (doi:10.1021/je020220n).
Several values for one entry are separate records, joined by “and”; a condition that tells them apart may be missing. Identical values can stand only once.

Details: Crystal

[Br][Er]([Br])[Br] [erbium bromide (ErBr3)]
Details | vapor or sublimation pressure
919 K | 2.82e-05 kPa
930 K | 4.17e-05 kPa and 7.08e-05 kPa
941 K | 7.08e-05 kPa
942 K | 8.91e-05 kPa and 0.0001122 kPa
948 K | 9.77e-05 kPa
952 K | 0.000123 kPa
954 K | 0.0001413 kPa
956 K | 0.000182 kPa
959 K | 0.0001413 kPa
961 K | 0.0001995 kPa
962 K | 0.0001778 kPa
964 K | 0.000195 kPa
966 K | 0.0001995 kPa
968 K | 0.000182 kPa
970 K | 0.0002692 kPa and 0.0002455 kPa
971 K | 0.0002951 kPa
973 K | 0.0002692 kPa
977 K | 0.0003467 kPa
979 K | 0.0003311 kPa and 0.0002818 kPa
982 K | 0.0003631 kPa
984 K | 0.0004898 kPa
988 K | 0.0004786 kPa
989 K | 0.0004677 kPa
990 K | 0.0004898 kPa
993 K | 0.0005623 kPa and 0.0004169 kPa
998 K | 0.000631 kPa and 0.0006166 kPa and 0.0007943 kPa
1004 K | 0.0009333 kPa
1007 K | 0.0008318 kPa
1008 K | 0.0006761 kPa and 0.0008511 kPa
1009 K | 0.000871 kPa
1010 K | 0.0009772 kPa
1015 K | 0.001349 kPa
1018 K | 0.001148 kPa and 0.001122 kPa
1020 K | 0.001 kPa
1025 K | 0.001698 kPa and 0.001445 kPa
1026 K | 0.001514 kPa
1028 K | 0.002089 kPa
1033 K | 0.002138 kPa and 0.001585 kPa
1036 K | 0.002042 kPa and 0.00257 kPa and 0.002089 kPa
1045 K | 0.002951 kPa and 0.002818 kPa
1051 K | 0.003631 kPa
1056 K | 0.00389 kPa
1058 K | 0.004365 kPa

[I][Er]([I])[I] [erbium iodide]
Details | vapor or sublimation pressure
871 K | 5.37e-05 kPa
873 K | 5.37e-05 kPa
876 K | 8.51e-05 kPa
884 K | 0.0001072 kPa
886 K | 7.94e-05 kPa and 0.0001047 kPa and 5.75e-05 kPa
889 K | 9.33e-05 kPa
890 K | 0.0001047 kPa
891 K | 0.0001479 kPa
897 K | 0.0001349 kPa
898 K | 0.0001349 kPa and 0.0001905 kPa
903 K | 0.0001622 kPa and 0.0002089 kPa
904 K | 0.0002344 kPa and 0.0002089 kPa
906 K | 0.0001995 kPa
907 K | 0.0001288 kPa
912 K | 0.0002138 kPa and 0.0003162 kPa
913 K | 0.0002692 kPa and 0.000302 kPa
915 K | 0.0002344 kPa
916 K | 0.0001738 kPa
918 K | 0.0002951 kPa and 0.0004074 kPa
923 K | 0.0004169 kPa
924 K | 0.0005129 kPa and 0.0003388 kPa
928 K | 0.0002754 kPa
929 K | 0.0003715 kPa
930 K | 0.000631 kPa and 0.000537 kPa and 0.0005754 kPa
932 K | 0.0004169 kPa
934 K | 0.0002884 kPa
936 K | 0.0006166 kPa and 0.0008318 kPa
937 K | 0.0003631 kPa
939 K | 0.0007586 kPa
940 K | 0.0005623 kPa and 0.000537 kPa and 0.0007586 kPa
943 K | 0.001071 kPa
945 K | 0.0004786 kPa
946 K | 0.0005129 kPa
947 K | 0.0007413 kPa
948 K | 0.000955 kPa
949 K | 0.001349 kPa and 0.001023 kPa and 0.001047 kPa
950 K | 0.0007762 kPa
952 K | 0.000537 kPa
955 K | 0.0006457 kPa
956 K | 0.001698 kPa
957 K | 0.0009772 kPa
958 K | 0.001445 kPa
959 K | 0.00123 kPa
961 K | 0.0007413 kPa
962 K | 0.001698 kPa
963 K | 0.001698 kPa and 0.001202 kPa and 0.0008913 kPa
966 K | 0.00195 kPa and 0.001023 kPa
968 K | 0.00257 kPa
969 K | 0.001514 kPa
971 K | 0.001906 kPa
972 K | 0.00123 kPa
973 K | 0.002455 kPa
974 K | 0.003162 kPa and 0.00257 kPa and 0.001175 kPa
976 K | 0.002042 kPa
978 K | 0.002884 kPa
979 K | 0.002951 kPa
980 K | 0.003802 kPa and 0.001622 kPa
981 K | 0.001778 kPa
982 K | 0.002512 kPa
983 K | 0.003388 kPa
984 K | 0.003548 kPa
986 K | 0.003236 kPa
987 K | 0.00182 kPa
988 K | 0.002089 kPa
989 K | 0.004266 kPa
990 K | 0.003236 kPa
992 K | 0.004266 kPa and 0.004467 kPa
994 K | 0.004786 kPa
995 K | 0.002951 kPa
996 K | 0.002754 kPa
997 K | 0.004169 kPa
999 K | 0.004786 kPa and 0.005754 kPa
1001 K | 0.00631 kPa and 0.002884 kPa
1004 K | 0.006457 kPa and 0.005129 kPa
1006 K | 0.006918 kPa
1007 K | 0.007079 kPa
1008 K | 0.004677 kPa and 0.00389 kPa
1010 K | 0.007943 kPa
1011 K | 0.008318 kPa
1012 K | 0.006761 kPa
1015 K | 0.004571 kPa
1016 K | 0.005129 kPa
1017 K | 0.01 kPa
1018 K | 0.008128 kPa
1019 K | 0.01047 kPa
1026 K | 0.01318 kPa
1030 K | 0.006918 kPa
1036 K | 0.01778 kPa
1045 K | 0.01023 kPa
1046 K | 0.02455 kPa
1059 K | 0.03548 kPa
1070 K | 0.04898 kPa
1082 K | 0.06918 kPa

[Cl][Er]([Cl])[Cl] [erbium trichloride]
Details | vapor or sublimation pressure
880 K | 1.07e-05 kPa
892 K | 1.58e-05 kPa
897 K | 2.14e-05 kPa
903 K | 2.69e-05 kPa
907 K | 1.7e-05 kPa and 3.24e-05 kPa
913 K | 4.27e-05 kPa
916 K | 5.13e-05 kPa
920 K | 3.39e-05 kPa
921 K | 5.89e-05 kPa
923 K | 3.39e-05 kPa
925 K | 4.27e-05 kPa and 6.92e-05 kPa
929 K | 5.01e-05 kPa
932 K | 5.01e-05 kPa and 4.27e-05 kPa
933 K | 0.0001023 kPa
935 K | 5.01e-05 kPa and 0.0001072 kPa
936 K | 6.76e-05 kPa
943 K | 0.0001445 kPa [middle of 4 runs]
948 K | 0.0001349 kPa
949 K | 8.51e-05 kPa
950 K | 0.0001995 kPa
951 K | 0.0001995 kPa
952 K | 0.0001175 kPa
953 K | 0.0001349 kPa
954 K | 0.0001 kPa
958 K | 0.0001514 kPa and 0.0001862 kPa
959 K | 0.0002754 kPa
960 K | 0.0002754 kPa
963 K | 0.0001698 kPa [middle of 4 runs]
968 K | 0.0002188 kPa and 0.0002692 kPa and 0.0003715 kPa
970 K | 0.0002188 kPa and 0.0003802 kPa
972 K | 0.0002692 kPa
976 K | 0.0002344 kPa
977 K | 0.0003981 kPa and 0.0002455 kPa
978 K | 0.0003236 kPa
981 K | 0.0003715 kPa
983 K | 0.0004898 kPa
986 K | 0.0004365 kPa
988 K | 0.0003467 kPa
990 K | 0.000631 kPa and 0.0004074 kPa and 0.0005012 kPa
995 K | 0.0005754 kPa and 0.000631 kPa
997 K | 0.0008318 kPa
998 K | 0.0004786 kPa
999 K | 0.0006761 kPa
1003 K | 0.0006607 kPa and 0.0008511 kPa
1004 K | 0.0007762 kPa
1008 K | 0.0009333 kPa and 0.0006761 kPa
1012 K | 0.001071 kPa
1013 K | 0.001097 kPa
1014 K | 0.001412 kPa
1016 K | 0.001071 kPa
1017 K | 0.001288 kPa
1018 K | 0.0009333 kPa
1021 K | 0.001445 kPa
1022 K | 0.001514 kPa
1025 K | 0.00195 kPa and 0.001698 kPa
1028 K | 0.001318 kPa
1030 K | 0.001514 kPa and 0.00195 kPa
1031 K | 0.002138 kPa
1033 K | 0.002512 kPa
1034 K | 0.002512 kPa
1037 K | 0.002455 kPa
1040 K | 0.002818 kPa and 0.003162 kPa and 0.002344 kPa
